In paper PMC11728142, “A Tachyplesin Antimicrobial Peptide from Theraphosidae Spiders with Potent Antifungal Activity Against Cryptococcus neoformans” (Microorganisms, 2024):
In brackets after ≈: the same amount, converted by molar mass.

What was measured:
Assay in all cases: microbe, parasite or virus in culture
[1] = tested on: Candida albicans_ATCC10231; conditions: Candida, 24 h
Method: (§1) To achieve a final cell concentration of 2 × 10^6 CFU/mL, mid-log phase cultures were diluted with a Yeast and Mold (YM) broth and then put to 96-well plates with two-fold serially diluted peptides (from 0.1 to 89.8 µM) in a 1:1 ratio.

Candida auris_84 = conditions: Candida, 24 h
Method: as §1

[2] = tested on: Cryptococcus neoformans_BNCC225501; conditions: Cryptococcus, 24 h
Method: as §1

Candida auris_55 = conditions: Candida, 24 h
Method: as §1

[3] = tested on: Cryptococcus neoformans_ATCC32045; conditions: Cryptococcus, 24 h
Method: as §1

## C[C@@H]1[C@H](O)[C@@H](C)/C=C/C=C/C=C/C=C/C=C/C=C/C=C/[C@H](O[C@@H]2O[C@H](C)[C@@H](O)[C@H](N)[C@@H]2O)C[C@@H]2O[C@](O)(C[C@@H](O)C[C@@H](O)[C@H](O)CC[C@@H](O)C[C@@H](O)CC(=O)O[C@H]1C)C[C@H](O)[C@H]2C(=O)O [Amphotericin B, amphotericin B, reference compound]
[1]
  MIC: ≤ 0.4 µM
Candida auris_84
  MIC: 0.8 µM (≈ 0.739 µg/mL)
[2]
  MIC: 1.7 µM (≈ 1.57 µg/mL)
Candida auris_55
  MIC: 1.7 µM (≈ 1.57 µg/mL)
[3]
  MIC: 3.4 µM (≈ 3.14 µg/mL)
